According to patent US20200131144A1, “AMINE OR (THIO)AMIDE CONTAINING LXR MODULATORS” (Phenex-FXR GmbH, priority 2017, published 2020):
Where “and” joins values, the source holds several entries; their conditions need not be identical. Identical values can stand only once.

How the values were obtained:
[1] = biological target: T1, GST-LXRβ ligand-binding domain (Homo sapiens, UniProt P55055, INS174Q); assay: TR-FRETβ activity assay (NCoA3 coactivator peptide recruitment); format: biochemical; details: 1 μM 24(S)-25-epoxycholesterol as prestimulating agonist; inverse agonist unless *
T1 construct: amino acids 156-461; NP009052; made in house; host or cells: E. coli
T1 sequence (P55055 with tags, fused parts or gaps INS174Q limits assumed): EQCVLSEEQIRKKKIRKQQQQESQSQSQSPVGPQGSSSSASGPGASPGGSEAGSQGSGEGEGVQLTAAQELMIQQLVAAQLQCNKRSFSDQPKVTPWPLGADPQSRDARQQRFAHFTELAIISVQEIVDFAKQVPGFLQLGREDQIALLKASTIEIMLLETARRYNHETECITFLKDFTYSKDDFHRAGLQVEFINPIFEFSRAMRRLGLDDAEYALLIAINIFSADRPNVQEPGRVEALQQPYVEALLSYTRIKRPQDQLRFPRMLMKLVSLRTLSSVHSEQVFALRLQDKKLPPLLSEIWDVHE
Description: The tested compounds were usually dissolved, tested and stored as 20 mM stock solutions in DMSO. […] Sulfonyl acetic acid derivatives are shelf stable as solid at rt for long time as reported by Griesbrecht et al. (Synlett 2010:374) or Faucher et al. (J. Med. Chem. 2004; 47:18). TR-FRETβ Activity Assay Recombinant GST-LXRβ ligand-binding domain (LBD; amino acids 156-461; NP009052; SEQ ID NO:4) was expressed in E. coli and purified via gluthatione-sepharose affinity chromatography. N-terminally biotinylated NCoA3 coactivator peptide (SEQ ID NO:7) was chemically synthesized (Eurogentec). […] Finally, a detection mix was added containing anti GST-Tb cryptate (CisBio; 610SAXLB) and Streptavidin-XL665 (CisBio; 610SAXLB) as fluorescent donor and acceptor, respectively, as well as the coactivator peptide and LXRβ-LBD protein (SEQ ID NO:4). The reaction was mixed thoroughly, equilibrated for 1 h at 4° C. and vicinity of LXRβ and coactivator peptide was detected by measurement of fluorescence in a VictorX4 multiplate reader (PerkinElmer Life Science) using 340 nm as excitation and 615 and 665 nm as emission wavelengths. Assays were performed in triplicates. Final Assay Concentrations of Components: 240 mM KCl, 1 μg/μL BSA, 0.002% Triton-X-100, 125 pg/μL anti GST-Tb cryptate, 2.5 ng/μL Streptavidin-XL665, coactivator peptide (400 nM), LXRP protein ([…], i.e. 76 nM).

[2] = biological target: T2, LXRα full length (FL) (Homo sapiens, UniProt Q13133); assay: LXR Gal4 reporter transient transfection assay, mammalian two-hybrid, FL-M2H Gal4α; format: cell-based; details: HEK293 cells; inverse agonist unless *
T2 construct: the full length (FL) proteins of LXRα (amino acids 1-447); NP005684; expressed in transfected cells; host or cells: HEK293
T2 sequence (Q13133 1-447): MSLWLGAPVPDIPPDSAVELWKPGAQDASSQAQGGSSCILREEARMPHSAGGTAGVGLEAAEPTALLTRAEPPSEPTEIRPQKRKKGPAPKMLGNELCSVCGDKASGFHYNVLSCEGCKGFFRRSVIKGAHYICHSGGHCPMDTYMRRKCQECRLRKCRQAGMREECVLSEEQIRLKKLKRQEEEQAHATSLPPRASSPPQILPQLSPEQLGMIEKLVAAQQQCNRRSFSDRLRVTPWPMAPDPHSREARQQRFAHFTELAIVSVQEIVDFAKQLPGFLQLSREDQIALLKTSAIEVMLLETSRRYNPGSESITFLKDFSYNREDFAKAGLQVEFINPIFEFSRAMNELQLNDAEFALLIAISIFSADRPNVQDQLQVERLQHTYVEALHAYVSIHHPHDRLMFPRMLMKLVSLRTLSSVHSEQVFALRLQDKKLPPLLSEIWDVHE
Description: (§1) The tested compounds were usually dissolved, tested and stored as 20 mM stock solutions in DMSO. Since sulfonyl acetic acid derivatives tend to decarboxylate under these conditions, these stock solutions were prepared, tested and stored as 20 mM DMSO stock solutions containing 100 mM trifluoroacetic acid (5 equivalents). Sulfonyl acetic acid derivatives are shelf stable as solid at rt for long time as reported by Griesbrecht et al. (Synlett 2010:374) or Faucher et al. (J. Med. Chem. 2004; 47:18).
(§2) LXR Gal4 Reporter Transient Transfection Assays
(§3) LXRα and LXRβ activity status was determined via detection of interaction with coactivator and corepressor proteins in mammalian two-hybrid experiments (M2H). For this, via transient transfection the full length (FL) proteins of LXRα (amino acids 1-447; NP005684; SEQ ID NO:1) or LXRβ-(amino acids 1-461; NP009052; SEQ ID NO:2) or the ligand-binding domains (LBD) of LXRα (amino acids 155-447 SEQ ID NO:3) or LXR (amino acids 156-461; SEQ ID NO:4) were expressed from pCMV-AD (Stratagene) as fusions to the transcriptional activation domain of NFkB. As cofactors, domains of either the steroid receptor coactivator 1 (SRC1; amino acids 552-887; SEQ ID NO:5) or of the corepressor NCoR (amino acids 1906-2312; NP006302; SEQ ID NO:6) were expressed as fusions to the DNA binding domain of the yeast transcription factor GAL4 (from pCMV-BD; Stratagene). Interaction was monitored via activation of a coexpressed Firefly Luciferase Reporter gene under control of a promoter containing repetitive GAL4 response elements (vector pFRLuc; Stratagene). Transfection efficiency was controlled via cotransfection of constitutively active pRL-CMV Renilla reniformis luciferase reporter (Promega). HEK293 cells were grown in minimum essential medium (MEM) with 2 mM L-glutamine and Earle's balanced salt solution supplemented with 8.3% fetal bovine serum, 0.1 mM non-essential amino acids, 1 mM sodium pyruvate, at 37° C. in 5% CO2. 3.5×10^4 cells/well were plated in 96-well cell culture plates in growth medium supplemented with 8.3% fetal bovine serum for 16-20 h to—90% confluency. For transfection, medium was taken off and LXR and cofactor expressing plasmids as well as the reporter plasmids are added in 30 μL OPTIMEM/well including polyethylene-imine (PEI) as vehicle. Typical amounts of plasmids transfected/well: pCMV-AD-LXR (5 ng), pCMV-BD-cofactor (5 ng), pFR-Luc (100 ng), pRL-CMV (0.5 ng). Compound stocks were prepared in DMSO, prediluted in MEM to a total volume of 120 μL, and added 4 h after addition of the transfection mixture (final vehicle concentration not exceeding 0.2%). Cells were incubated for additional 16 h, lysed for 10 min in 1×Passive Lysis Buffer (Promega) and Firefly and Renilla luciferase activities were measured sequentially in the same cell extract using buffers containing D-luciferine and coelenterazine, respectively. Measurements of luminescence were done in a BMG-luminometer.

[3] = biological target: T3, LXRβ full length (FL) (Homo sapiens, UniProt P55055, INS174Q); assay: LXR Gal4 reporter transient transfection assay, mammalian two-hybrid, FL-M2H Gal4β; format: cell-based; details: HEK293 cells; inverse agonist unless *
T3 construct: the full length (FL) proteins of LXRα (amino acids 1-447); NP005684; NP009052; expressed in transfected cells; host or cells: HEK293
T3 sequence (P55055 with tags, fused parts or gaps INS174Q): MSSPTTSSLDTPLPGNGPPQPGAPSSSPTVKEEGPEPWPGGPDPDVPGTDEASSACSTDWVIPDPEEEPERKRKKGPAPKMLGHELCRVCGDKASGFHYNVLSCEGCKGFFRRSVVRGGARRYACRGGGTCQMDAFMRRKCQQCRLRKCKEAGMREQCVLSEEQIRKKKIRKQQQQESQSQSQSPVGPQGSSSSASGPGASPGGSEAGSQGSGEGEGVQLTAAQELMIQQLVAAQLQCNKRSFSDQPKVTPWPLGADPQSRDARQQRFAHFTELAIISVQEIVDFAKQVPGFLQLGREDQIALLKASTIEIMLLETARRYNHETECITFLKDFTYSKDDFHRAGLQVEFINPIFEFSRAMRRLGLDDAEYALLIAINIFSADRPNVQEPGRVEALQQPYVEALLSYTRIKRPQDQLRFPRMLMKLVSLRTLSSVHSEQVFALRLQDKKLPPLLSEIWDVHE
Description: as §1, §2, §3

SMILES	EC50 [1] [nM]	EC50 [2] [nM]	EC50 [3]	FRETβ [1]
O=C(O)CS(=O)(=O)c1cccc(-c2ccc(CN(Cc3ccc(C(F)(F)F)o3)Cc3cccc4ccccc34)cc2)c1 [7/2]	1000 to 10000	100 to 1000	100 to 1000 nM	
O=C(O)CS(=O)(=O)c1cccc(-c2ccc(CN(Cc3ccc(C(F)(F)F)o3)Cc3ccc(F)c4cccnc34)cc2)c1 [7/3]		1000 to 10000	1000 to 10000 nM and 100 to 1000 nM	B*
COc1ccc2ccccc2c1CN(Cc1ccc(-c2cccc(S(=O)(=O)CC(=O)O)c2)cc1)Cc1ccc(C(F)(F)F)o1 [7/5]	100 to 1000	100 to 1000	100 to 1000 nM	
Cc1sc2ccccc2c1CN(Cc1ccc(-c2cccc(S(=O)(=O)CC(=O)O)c2)cc1)Cc1ccc(C(F)(F)F)o1 [7/6]	1000 to 10000	100 to 1000	100 to 1000 nM	
O=C(O)CS(=O)(=O)c1cccc(-c2ccc(CN(Cc3ccc(C(F)(F)F)o3)Cc3c(Cl)cccc3Cl)cc2)c1 [7/10]	100 to 1000	1000 to 10000	100 to 1000 nM	
Cc1cc(C)c(CN(Cc2ccc(-c3cccc(S(=O)(=O)CC(=O)O)c3)cc2)C(C)c2ccc(C(F)(F)F)o2)c(C)c1 (stereo not drawn) [7/12]	1000 to 10000	100 to 1000	100 to 1000 nM	
Cc1cc(C)c(CN(Cc2ccc(-c3cccc(S(=O)(=O)CC(=O)O)c3)cc2)Cc2ccc(C(=O)N(C)C)o2)c(C)c1 [7/13]	1000 to 10000	1000 to 10000	1000 to 10000 nM	
Cc1cc(C)c(CN(Cc2ccc(-c3cccc(S(=O)(=O)CC(=O)O)c3)cc2)Cc2cccc(C(F)(F)F)c2)c(C)c1 [7/14]	1000 to 10000	1000 to 10000	100 to 1000 nM	
Cc1ccc2ccccc2c1C(=O)N(Cc1ccc(-c2cccc([C@H](C)C(=O)O)c2)cc1)Cc1ccc(C(F)(F)F)o1 [10/6]	< 100	< 100	< 100 nM	
Cc1cc(C)c(CN(Cc2ccc(-c3cc(F)cc(S(=O)(=O)CC(=O)O)c3)cc2)Cc2ccc(C(F)(F)F)o2)c(C)c1 [12/1]	100 to 1000	100 to 1000	100 to 1000 nM	
Cc1cc(C)c(CN(Cc2ccc(C(F)(F)F)o2)Cc2ccc(-c3cccc(S(=O)(=O)CC(=O)O)c3)cc2C)c(C)c1 [15/1]	1000 to 10000	1000 to 10000	100 to 1000 nM	
Cc1ccc2ccccc2c1CN(Cc1ccc(-c2cc(F)c(CO)c(S(=O)(=O)CC(=O)O)c2)cc1)Cc1ccc(C(F)(F)F)o1 [22/7]	1000 to 10000	100 to 1000	100 to 1000 nM	
COc1cc(-c2cc(F)c(CO)c(S(=O)(=O)CC(=O)O)c2)ccc1CN(Cc1ccc(C(F)(F)F)o1)Cc1c(C)ccc2ccccc12 [22/9]	1000 to 10000	100 to 1000	< 100 nM	
COc1cc(-c2cc(F)c(CO)c(S(=O)(=O)CC(=O)O)c2)ccc1CN(Cc1ccc(C(F)(F)F)o1)Cc1c(C)cc(C)cc1C [22/10]	1000 to 10000	1000 to 10000	100 to 1000 nM	
Cc1cc(C)c(C(=O)N(Cc2ccc(-c3cc(F)c(CO)c(S(=O)(=O)CC(=O)O)c3)cc2)Cc2ccc(C(F)(F)F)o2)c(C)c1 [22/13]	1000 to 10000	100 to 1000	100 to 1000 nM	
Cc1ccc2ccccc2c1CN(Cc1ccc(-c2cncc(S(=O)(=O)CC(=O)O)c2)cc1)Cc1ccc(C(F)(F)F)o1 [26/7]	> 10000	1000 to 10000	100 to 1000 nM	
Cc1ccc2ccccc2c1C(=O)N(Cc1ccc(-c2cccc(C(C)(C)C(=O)O)c2)cc1)Cc1ccc(C(C)(C)C)o1 [27/1]	1000 to 10000	100 to 1000	< 100 nM	
Cc1ccc2ccccc2c1C(=O)N(Cc1ccc(-c2cccc(S(=O)(=O)CC(=O)O)c2)cc1)Cc1ccc(C#N)o1 [27/2]	1000 to 10000	1000 to 10000	1000 to 10000 nM	
Cc1ccc2ccccc2c1C(=O)N(Cc1ccc(-c2cccc(S(=O)(=O)CC(=O)O)c2)cc1)Cc1ccc(C(F)(F)F)[nH]1 [27/3]	1000 to 10000	1000 to 10000	1000 to 10000 nM	
Cc1ccc2ccccc2c1C(=O)N(Cc1ccc(C(F)(F)F)o1)C1COc2cc(-c3cccc(C(C)(C)C(=O)O)c3)ccc21 (stereo not drawn) [27/4]	> 10000	100 to 1000	100 to 1000 nM	
Cc1ccc2ccccc2c1C(=O)N(Cc1ccc(-c2cccc(C(C)(C)C(=O)O)c2)cc1)C1CCc2ccc(C(F)(F)F)cc21 (stereo not drawn) [27/5]	100 to 1000	< 100	< 100 nM	
Cc1ccc2ccccc2c1C(=O)N(Cc1ccc(C(F)(F)F)o1)Cc1c(F)cc(-c2cccc(C(C)(C)C(=O)O)c2)cc1Cl [27/6]	< 100	< 100	< 100 nM	
CC(c1cccc2ncccc12)N(Cc1ccc(-c2cccc(S(=O)(=O)CC(=O)O)c2)cc1)Cc1ccc(C(F)(F)F)o1 (stereo not drawn) [27/8]	1000 to 10000	100 to 1000	100 to 1000 nM	
